Earlier results as cited in patent US7317012B2, “Bicyclic heterocycles as cannabinoind-1 receptor modulators” (Bristol-Myers Squibb Company, priority 2005, dated 2008).
Where two headings read alike, the source gives them in different places.

What was measured:
[1] = chronic administration for two weeks
[2] = human subjects, 16 week trial period

Row | SMILES | body weight [1] | body weight [2]
1 | Cc1c(C(=O)NN2CCCCC2)nn(-c2ccc(Cl)cc2Cl)c1-c1ccc(I)cc1 [AM-251] | substantial body weight reduction | 
2 | Cc1c(C(=O)NN2CCCCC2)nn(-c2ccc(Cl)cc2Cl)c1-c1ccc(Cl)cc1 [SR-141716] |  | dose-dependently reduced body weight
